Test results published in ChEMBL document CHEMBL1137042, “Synthesis and cytotoxic activity of novel derivatives of 4'-demethylepipodophyllotoxin” (Bioorg Med Chem Lett, 2004).
pIC50: −log10 of the molar value.

How the values were obtained:
HL-60 = test: In vitro inhibitory concentration required against human leukemic HL-60 cell line was determined after 48 hrs of drug exposure using MTT method; type: functional, cell-based; conditions: HL-60, 48 h
A549 = test: In vitro inhibitory concentration required against human lung carcinoma A-549 cell line was determined after 72 hrs of drug exposure using SRB method; type: functional, cell-based; conditions: A549, 72 h

| SMILES | pIC50 (HL-60) | pIC50 (A549) |
| --- | --- | --- |
| COc1cc([C@@H]2c3cc4c(cc3[C@@H](NC(C(=O)OCCCn3cc(F)c(=O)[nH]c3=O)C(C)Cc3ccccc3)[C@H]3COC(=O)[C@H]23)OCO4)cc(OC)c1O (stereo not given in full) | 6.62 | 6.74 |
| COc1cc([C@@H]2c3cc4c(cc3[C@@H](NC(Cc3ccccc3)C(=O)OCCCCCn3cc(F)c(=O)[nH]c3=O)[C@H]3COC(=O)[C@H]23)OCO4)cc(OC)c1O (stereo not given in full) | 7.40 | > 8.00 |
| COc1cc([C@@H]2c3cc4c(cc3[C@@H](NC(CSC)C(=O)OCCCn3cc(F)c(=O)[nH]c3=O)[C@H]3COC(=O)[C@H]23)OCO4)cc(OC)c1O (stereo not given in full) | 6.00 | 6.54 |
| COc1cc([C@@H]2c3cc4c(cc3[C@@H](NC(Cc3ccccc3)C(=O)OCCCn3cc(F)c(=O)[nH]c3=O)[C@H]3COC(=O)[C@H]23)OCO4)cc(OC)c1O (stereo not given in full) | 6.51 | 6.32 |
| COc1cc([C@@H]2c3cc4c(cc3[C@@H](NC(C(=O)OCCCCn3cc(F)c(=O)[nH]c3=O)C(C)Cc3ccccc3)[C@H]3COC(=O)[C@H]23)OCO4)cc(OC)c1O (stereo not given in full) | 6.28 | 6.13 |
| COc1cc([C@@H]2c3cc4c(cc3[C@@H](NC(CSC)C(=O)OCCCCCn3cc(F)c(=O)[nH]c3=O)[C@H]3COC(=O)[C@H]23)OCO4)cc(OC)c1O (stereo not given in full) | 7.40 | 6.64 |
| COc1cc([C@@H]2c3cc4c(cc3[C@@H](NC(Cc3ccccc3)C(=O)OCCCCn3cc(F)c(=O)[nH]c3=O)[C@H]3COC(=O)[C@H]23)OCO4)cc(OC)c1O (stereo not given in full) | 6.38 | 6.52 |
| COc1cc([C@@H]2c3cc4c(cc3[C@@H](NC(C(=O)OCCCCCn3cc(F)c(=O)[nH]c3=O)C(C)Cc3ccccc3)[C@H]3COC(=O)[C@H]23)OCO4)cc(OC)c1O (stereo not given in full) | 6.52 | 6.28 |
| COc1cc([C@@H]2c3cc4c(cc3[C@@H](NC(CSC)C(=O)OCCCCn3cc(F)c(=O)[nH]c3=O)[C@H]3COC(=O)[C@H]23)OCO4)cc(OC)c1O (stereo not given in full) | 7.30 | 5.73 |
| O=c1[nH]cc(F)c(=O)[nH]1 [FLUOROURACIL] | 4.19 | 4.30 |
